# Assay results as given in patent US20210330611A1, “THERAPY FOR NEUROLOGICAL DISEASES/DISORDERS” (priority 2020, published 2021).
# Counter-ions that a name gives are not always drawn. Like-named read-outs stand apart in the source and are kept apart here.
# Columns and labels:
# [1] = tested on: fibrin-induced microglia activation; assay: Image-based assay of fibrin-induced microglia activation (HTS and dose response); type: cell-based, rat; settings: Rattus norvegicus, Microglia, primary microglia HTS, fibrin stimulation, read-out: Fibrin % inhibition
# [2] = tested on: LPS-induced microglia activation; assay: Image-based assay of LPS-induced microglia activation (HTS and dose response); type: cell-based, rat; settings: Rattus norvegicus, Microglia, read-out: LPS % inhibition
# [3] = tested on: fibrin- and LPS-induced microglia activation; assay: cells; type: cell-based, rat
# primary rat microglia [4] = settings: rat
# primary rat microglia [5] = assay: Cell toxicity (dead cells, size <150 μm2) in coated fibrin (cFib) assay; settings: primary microglia HTS;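 note: share of dead cells sized under 150 µm2 at 10 µM in fibrin-stimulated microglia HTS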
# [6] = primary microglia HTS, LPS stimulation, compounds at 10 μM
# [7] = quadrant by fibrin and LPS inhibition, HTS at 10 μM
# [8] = fibrin assay, dead cells (size <150 μm2)
# [9] = classification by fibrin and LPS inhibition, HTS at 10 μM
# [10] = fibrin assay, dead cells (size <150 μm2), compounds at 10 μM
# [11] = cell size >800 μm2 as marker of activation
# [12] = classification by fibrin and LPS inhibition in HTS
# [13] = fibrin stimulation, cell size <150 μm2 as marker of toxicity
Structure (SMILES),inhibition at 10 µM ([1]; compounds at 10 μM) [%],"inhibition at 10 µM [2, 6] [%]","Quadrant (FIG. 5b) [3, 7]",LPS % cell toxicity (primary rat microglia [4]) [%],Fibrin % cell toxicity (primary rat microglia [5]; [8]) [%],"Quadrant (FIG. 5b) [3, 9]",Fibrin % cell toxicity (primary rat microglia [5]; [10]) [%],"inhibition at 10 µM [1, 11] [%]",inhibition at 10 µM ([2]; 48 h) [%],"Quadrant (FIG. 5b) [3, 12]",Fibrin % cell toxicity (primary rat microglia [5]; [13]) [%]
Nc1ccc(C(=O)NCC(=O)O)cc1 [Aminohippuric Acid],-7,16,Q4,1,1,–,–,–,–,–,–
OC[C@@H](O)[C@@H](O)CO [Erythritol],-25,10,–,0,–,Q4,1,–,–,–,–
CN1C(C)(C)CCCC1(C)C [Pempidine Tartrate],–,–,–,0,–,–,–,-19,13,Q4,1
C#CCN(C)Cc1ccccc1 [Pargyline],–,–,–,0,–,–,–,-25,11,Q4,1
O=C(Nc1ccccc1)c1ccccc1O [Salicylanilide],–,–,–,0,–,–,–,1,13,Q4,1
CCC(C)(C)c1ccc(CC(C)CN2C[C@@H](C)O[C@@H](C)C2)cc1 (some centres unmarked) [Amorolfine],6,22,Q4,0,1,–,–,–,–,–,–
CCOc1ccc(NC(C)=O)cc1 [Phenacetin],–,–,–,0,–,–,–,-5,16,Q4,1
CC(CN(C)C)CN1c2ccccc2Sc2ccccc21 (centres unmarked) [Alimemazine],32,39,Q4,0,1,–,–,–,–,–,–
CC[N+](CC)(CC(=O)Nc1c(C)cccc1C)Cc1ccccc1 [Denatonium Benzoate],2,12,–,0,–,Q4,0,–,–,–,–
CC(=O)Nc1cccc(O)c1 [3-acetamidophenol],4,5,Q4,0,1,–,–,–,–,–,–
C/C=C(/C(=C/C)c1ccc(O)cc1)c1ccc(O)cc1 [Dienestrol],17,21,–,0,–,Q4,1,–,–,–,–
CC[C@H]1OC(=O)[C@H](C)[C@@H](O[C@H]2C[C@@](C)(OC)[C@@H](O)[C@H](C)O2)[C@H](C)[C@@H](O[C@@H]2O[C@H](C)C[C@H](N(C)C)[C@H]2O)[C@](C)(O)C[C@@H](C)[C@@H]2N[C@@H](COCCOC)O[C@H]([C@H]2C)[C@]1(C)O [Dirithromycin],7,27,–,1,–,Q4,1,–,–,–,–
Cc1cnc(C(=O)O)c[n+]1[O-] [Acipimox],-11,20,Q4,0,1,–,–,–,–,–,–
CCC(=O)O[C@H]1[C@H](O[C@@H]2[C@@H](C)[C@H](O[C@H]3C[C@@](C)(OC)[C@@H](O)[C@H](C)O3)[C@@H](C)C(=O)O[C@H](CC)[C@@](C)(O)[C@H](O)[C@@H](C)C(=O)[C@H](C)C[C@@]2(C)O)O[C@H](C)C[C@@H]1N(C)C [Erythromycin Propionate],23,27,–,0,–,Q4,1,–,–,–,–
NS(=O)(=O)c1cc2c(cc1Cl)N=C(CSCc1ccccc1)NS2(=O)=O [Benzthiazide],-8,7,Q4,0,1,–,–,–,–,–,–
CC(C)NCC(O)COc1cccc2[nH]ccc12 (centres unmarked) [Pindolol],–,–,–,1,–,–,–,-13,24,Q4,1
